Test results published in article PMC5578959, “Selective LRRK2 kinase inhibition reduces phosphorylation of endogenous Rab10 and Rab12 in human peripheral mononuclear blood cells” (Scientific Reports, 2017).

Columns and labels:
Assay in all cases: KiNativ profiling in human PBMCs
Type in all cases: binding
Wnk1,Wnk2 = details: ATP Loop
Protocol: (§1) Compounds were shipped to ActivX Technologies (San Diego, US) where LRRK2 target engagement and broad kinase profiling was performed using KiNativ™ procedures. Live cell treatment of human peripheral blood mononuclear cells (PBMCs) at two compound concentrations (1 µM and 0.1 µM) were used to evaluate and compare in vitro target engagement and kinase selectivity, respectively (see Supplementary File 1).

p70S6K = tested on: T1, p70S6K; details: Lys2
T1 construct: purchased ActivX Technologies (KiNativ)
Protocol: as §1

IRAK3 = tested on: T2, IRAK3; details: Lys1
T2 construct: purchased ActivX Technologies (KiNativ)
Protocol: as §1

STLK6 = tested on: T3, STLK6; details: Lys2
T3 construct: purchased ActivX Technologies (KiNativ)
Protocol: as §1

FES = tested on: T4, FES; details: Lys1
T4 construct: purchased ActivX Technologies (KiNativ)
Protocol: as §1

RSKL1 domain1 = tested on: T5, RSKL1 domain1; details: Protein Kinase Domain
T5 construct: RSKL1 domain1; purchased ActivX Technologies (KiNativ)
Protocol: as §1

MST3 = tested on: T6, MST3; details: Lys2
T6 construct: purchased ActivX Technologies (KiNativ)
Protocol: as §1

SMG1 = tested on: T7, SMG1; details: ATP
T7 construct: purchased ActivX Technologies (KiNativ)
Protocol: as §1

CaMK4 = tested on: T8, CaMK4
T8 construct: purchased ActivX Technologies (KiNativ)
Protocol: as §1

IRE1 = tested on: T9, IRE1; details: Lys2
T9 construct: purchased ActivX Technologies (KiNativ)
Protocol: as §1

CaMK2g = tested on: T10, CaMK2g; details: Lys1
T10 construct: purchased ActivX Technologies (KiNativ)
Protocol: as §1

KHS1 = tested on: T11, KHS1; details: Lys1
T11 construct: purchased ActivX Technologies (KiNativ)
Protocol: as §1

MAP2K3 = tested on: T12, MAP2K3
T12 construct: purchased ActivX Technologies (KiNativ)
Protocol: as §1

PKR = tested on: T13, PKR
T13 construct: purchased ActivX Technologies (KiNativ)
Protocol: as §1

CDK7 = tested on: T14, CDK7
T14 construct: purchased ActivX Technologies (KiNativ)
Protocol: as §1

PKCa,PKCb = details: Lys2
Protocol: as §1

PKD2 = tested on: T15, PKD2; details: Lys1
T15 construct: purchased ActivX Technologies (KiNativ)
Protocol: as §1

PCTAIRE2 = tested on: T16, PCTAIRE2; details: Lys2
T16 construct: purchased ActivX Technologies (KiNativ)
Protocol: as §1

PIK3C3 = tested on: T17, PIK3C3; details: ATP
T17 construct: purchased ActivX Technologies (KiNativ)
Protocol: as §1

SLK = tested on: T18, SLK
T18 construct: purchased ActivX Technologies (KiNativ)
Protocol: as §1

[1] = tested on: CaMK2a,CaMK2b,CaMK2d,CaMK2g; details: Lys2
Protocol: as §1

SGK3 = tested on: T19, SGK3; details: Lys2
T19 construct: purchased ActivX Technologies (KiNativ)
Protocol: as §1

QSK = tested on: T20, QSK; details: Lys1
T20 construct: purchased ActivX Technologies (KiNativ)
Protocol: as §1

JNK1,JNK2,JNK3 = details: Lys2
Protocol: as §1

eEF2K = tested on: T21, eEF2K; details: ATP
T21 construct: purchased ActivX Technologies (KiNativ)
Protocol: as §1

MAP3K2,MAP3K3 = details: Lys2
Protocol: as §1

MLK3 = tested on: T22, MLK3; details: Lys2
T22 construct: purchased ActivX Technologies (KiNativ)
Protocol: as §1

TAO2 = tested on: T23, TAO2; details: Lys2
T23 construct: purchased ActivX Technologies (KiNativ)
Protocol: as §1

ULK3 = tested on: T24, ULK3
T24 construct: purchased ActivX Technologies (KiNativ)
Protocol: as §1

IKKe,TBK1 = details: Lys2
Protocol: as §1

PCTAIRE1,PCTAIRE3 = details: Lys2
Protocol: as §1

CaMK1d = tested on: T25, CaMK1d
T25 construct: purchased ActivX Technologies (KiNativ)
Protocol: as §1

AKT1 = tested on: T26, AKT1; details: ATP Loop
T26 construct: purchased ActivX Technologies (KiNativ)
Protocol: as §1

OSR1 = tested on: T27, OSR1; details: Lys2
T27 construct: purchased ActivX Technologies (KiNativ)
Protocol: as §1

YANK3 = tested on: T28, YANK3; details: Lys2
T28 construct: purchased ActivX Technologies (KiNativ)
Protocol: as §1

TLK1 = tested on: T29, TLK1
T29 construct: purchased ActivX Technologies (KiNativ)
Protocol: as §1

SMILES: Cc1cccc(-c2cc(Nc3ccn(C)n3)nc3[nH]cc(C#N)c23)c1 [Lu AF58786]
- Inhibition (Wnk1,Wnk2; 0.1µM): 12.8%
- Inhibition (Wnk1,Wnk2; 1µM): 3.9%
- Inhibition (p70S6K; 0.1µM): -7.6%
- Inhibition (p70S6K; 1µM): -5.7%
- Inhibition (IRAK3; 0.1µM): -25.6%
- Inhibition (IRAK3; 1µM): 17.0%
- Inhibition (STLK6; 0.1µM): -9.8%
- Inhibition (STLK6; 1µM): -1.6%
- Inhibition (FES; 0.1µM): 13.9%
- Inhibition (FES; 1µM): 9.3%
- Inhibition (RSKL1 domain1; 0.1µM): 15.2%
- Inhibition (RSKL1 domain1; 1µM): 1.9%
- Inhibition (MST3; 0.1µM): 12.8%
- Inhibition (MST3; 1µM): 1.2%
- Inhibition (SMG1; 0.1 µM, DTVTIHSVGGTITILPTKTKPK): -6.3%
- Inhibition (SMG1; 0.1 µM, SYPYLFKGLEDLHLDER): 12.6%
- Inhibition (SMG1; 1 µM, DTVTIHSVGGTITILPTKTKPK): -13.9%
- Inhibition (SMG1; 1 µM, SYPYLFKGLEDLHLDER): 4.3%
- Inhibition (CaMK4; 0.1µM, Lys1): 11.0%
- Inhibition (CaMK4; 0.1µM, Lys2): 14.0%
- Inhibition (CaMK4; 1µM, Lys1): 23.7%
- Inhibition (CaMK4; 1µM, Lys2): 12.9%
- Inhibition (IRE1; 0.1µM): -7.8%
- Inhibition (IRE1; 1µM): -11.6%
- Inhibition (CaMK2g; 0.1µM): 3.3%
- Inhibition (CaMK2g; 1µM): -7.2%
- Inhibition (KHS1; 0.1µM): 3.0%
- Inhibition (KHS1; 1µM): -2.5%
- Inhibition (MAP2K3; 0.1µM, Lys1): -31.6%
- Inhibition (MAP2K3; 0.1µM, Lys2): -1.9%
- Inhibition (MAP2K3; 1µM, Lys1): -37.3%
- Inhibition (MAP2K3; 1µM, Lys2): 0.27%
- Inhibition (PKR; 0.1µM, Activation Loop): 6.9%
- Inhibition (PKR; 0.1µM, Lys2): 5.1%
- Inhibition (PKR; 1µM, Activation Loop): -2.5%
- Inhibition (PKR; 1µM, Lys2): 4.5%
- Inhibition (CDK7; 0.1µM, Lys1): 3.7%
- Inhibition (CDK7; 0.1µM, Lys2): 9.8%
- Inhibition (CDK7; 1µM, Lys1): -0.256%
- Inhibition (CDK7; 1µM, Lys2): 18.0%
- Inhibition (PKCa,PKCb; 0.1µM): -5.7%
- Inhibition (PKCa,PKCb; 1µM): -0.9%
- Inhibition (PKD2; 0.1µM): 14.5%
- Inhibition (PKD2; 1µM): 15.3%
- Inhibition (PCTAIRE2; 0.1µM): 18.1%
- Inhibition (PCTAIRE2; 1µM): -0.164%
- Inhibition (PIK3C3; 0.1µM): 1.5%
- Inhibition (PIK3C3; 1µM): -10.0%
- Inhibition (SLK; 0.1µM, Lys1): -13.3%
- Inhibition (SLK; 0.1µM, Lys2): 8.0%
- Inhibition (SLK; 1µM, Lys1): 25.5%
- Inhibition (SLK; 1µM, Lys2): -7.2%
- Inhibition ([1]; 0.1µM): -12.1%
- Inhibition ([1]; 1µM): -1.0%
- Inhibition (SGK3; 0.1µM): -8.9%
- Inhibition (SGK3; 1µM): 13.9%
- Inhibition (QSK; 0.1µM): 15.6%
- Inhibition (QSK; 1µM): 28.4%
- Inhibition (JNK1,JNK2,JNK3; 0.1µM): 30.2%
- Inhibition (JNK1,JNK2,JNK3; 1µM): 71.2%
- Inhibition (eEF2K; 0.1µM): 12.2%
- Inhibition (eEF2K; 1µM): 6.3%
- Inhibition (MAP3K2,MAP3K3; 0.1µM): 6.3%
- Inhibition (MAP3K2,MAP3K3; 1µM): 0.325%
- Inhibition (MLK3; 0.1µM): 1.5%
- Inhibition (MLK3; 1µM): 8.8%
- Inhibition (TAO2; 0.1µM): 17.3%
- Inhibition (TAO2; 1µM): 18.3%
- Inhibition (ULK3; 0.1µM, Lys1): 3.2%
- Inhibition (ULK3; 0.1µM, Lys2): -16.6%
- Inhibition (ULK3; 1µM, Lys1): 2.2%
- Inhibition (ULK3; 1µM, Lys2): -15.6%
- Inhibition (IKKe,TBK1; 0.1µM): -16.4%
- Inhibition (IKKe,TBK1; 1µM): -9.8%
- Inhibition (PCTAIRE1,PCTAIRE3; 0.1µM): 5.6%
- Inhibition (PCTAIRE1,PCTAIRE3; 1µM): -11.1%
- Inhibition (CaMK1d; 0.1µM, Lys1): 11.8%
- Inhibition (CaMK1d; 0.1µM, Lys2): -11.6%
- Inhibition (CaMK1d; 1µM, Lys1): -4.5%
- Inhibition (CaMK1d; 1µM, Lys2): -6.3%
- Inhibition (AKT1; 0.1µM): 7.0%
- Inhibition (AKT1; 1µM): -7.5%
- Inhibition (OSR1; 0.1µM): 19.8%
- Inhibition (OSR1; 1µM): -4.1%
- Inhibition (YANK3; 0.1µM): 11.1%
- Inhibition (YANK3; 1µM): -8.5%
- Inhibition (TLK1; 0.1µM, Lys1): 2.2%
- Inhibition (TLK1; 0.1µM, Lys2): 16.2%
- Inhibition (TLK1; 1µM, Lys1): 15.4%
- Inhibition (TLK1; 1µM, Lys2): 4.7%
